The values below come from patent publication US11136362B2, “Peptide modulators of specific calcineurin protein-protein interactions” (The Board of Trustees of the Leland Stanford Junior …, priority 2016, dated 2021).

Read-outs that look alike come from different tables or passages of the source. Ends that are not written are not given here.

The subject of data set [1] is primary neonatal cardiomyocytes (PNCM). Put plainly: Mitochondrial membrane potential by live cell imaging (TMRE/CMXRos), normoxia. Format: cell-based, rat. The source says: • Primary Neonatal Cardiomyocyte Isolation: Rat pups 1-3 days of age were used for primary neonatal cardiomyocyte isolation as previously described (Disatnik et al., Journal of the American Heart Association, 2013. 2:e000461). • Peptide Synthesis: Peptides were synthesized using microwave chemistry on a Liberty Microwave Peptide Synthesizer (CEM Corporation) (Gross et al., Basic Research in Cardiology, 2013. 108:381). Peptides were synthesized as one polypeptide with TAT47-57 carrier in the following order: N-terminus-TAT47-57-spacer (Gly-Gly)-cargo-C-terminus. • RT PCR: Total RNA was isolated from PNCM on day 4 in culture and H9C2 cells at passages 18, 23, 24 (Ambion RNAqueous kit). To reduce DNA contamination in the preparations, the isolated total RNA was subject to precipitation with lithium chloride and DNase digestion (Ambion DNase free). cDNA was generated from mRNA using Takara Primescript cDNA synthesis kit with oligo dT primers. Previously described primers, forward: […] (SEQ ID NO:112) and reverse: […] […] The amplified PCR product was subcloned into the pCR TOPO vector (Invitrogen) and sequenced. • Quantitative PCR: cDNA from mRNA was generated from H9C2, PNCM, and heart tissues (RA, LA, RV, LV) as described above. […]

The subject of a further data set is H9C2 cells. Put plainly: H9C2 cell model of ischemia-reoxygenation, lactate dehydrogenase release. Format: cell-based.
The next data set concerns isolated rat hearts. Put plainly: Isolated heart model of ischemia-reperfusion injury. The settings on record: for heart rate when infused: 10 minutes prior to ischemia.
The subject of data set [2] is Sprague-Dawley rats. The data set is classed as in vivo, rat. The settings on record: for HR / MAP / RPP: CAP 0.3 mg/kg, CsA 2.5 mg/kg, V1-cal 1 mg/kg, given 5 minutes prior to reperfusion.
For data set [3], the system named is Sprague-Dawley rats.
The subject of data set [4] is Sprague-Dawley rats. Put plainly: In vivo rat remote conditioning (abdominal incision before LAD ischemia-reperfusion).
Data set [5] has as its system Sprague-Dawley TRPV1 knockout rats. Put plainly: In vivo LAD ischemia-reperfusion injury model in TRPV1 knockout rats. Also on record: species or system rat.
The nature of data set [6]: Peptide stability, trypsin digestion analyzed by RP-HPLC. The data set is classed as in vitro ADME. The settings on record: 20 minutes after exposure to trypsin; read-out: degraded. As for the experimental part:
FIG. 12: Determination of peptide stability. A. At baseline a single peak at 5 minutes was noted when V1-cal was analyzed by RP-HPLC (arrow in green). B. 10 minutes after trypsin digestion, V1-cal is still detected (arrow in green), yet is 75% degraded with the with multiple peaks detected as degradation products of V1-cal (black arrows). C. 20 minutes after exposure to trypsin, V1-cal is 100% degraded (with no peak at 5 minutes and multiple other peaks shown with black arrows detected).

The mark [7] stands for this setting: 15 min Ischemia, capsaicin 0.1 mg/kg.
Where [8] appears, read: 15 min Ischemia, capsaicin 0.3 mg/kg.
The mark [9] stands for this setting: 15 min Ischemia, capsaicin 1.0 mg/kg.
The mark [10] stands for this setting: 15 min Ischemia, capsaicin 3.0 mg/kg.
The mark [11] stands for this setting: 2 hrs Reperfusion, capsaicin 0.1 mg/kg.
[12] abbreviates: 2 hrs Reperfusion, capsaicin 0.3 mg/kg.
The mark [13] stands for this setting: 2 hrs Reperfusion, capsaicin 1.0 mg/kg.
The mark [14] stands for this setting: 2 hrs Reperfusion, capsaicin 3.0 mg/kg.

Turning to `COc1cc(CNC(=O)CCCC/C=C/C(C)C)ccc1O` [capsaicin], the “mitochondrial membrane potential (TMRE)” value in data set [1] (0.1-10 μM, over 30 minutes) is given as “dose-dependently decreased mitochondrial membrane potential”. Also, in the data set on H9C2 cells (0.1 μM), the LDH release entry is “reduced LDH release”. The “reduction of LDH release” value with H9C2 cells (1 and 10 μM) was “did not occur”. Further, the “heart rate, isolated un-paced rat hearts” value with isolated rat hearts (capsaicin 0.1 μM versus vehicle (DMSO)) is on record as “increased heart rate during the first 15 minutes of infusion”. For the same compound, the HR in the data set on Sprague-Dawley rats [2] (15 min Ischemia) came to 377 ± 11 beats/min; in the data set on Sprague-Dawley rats [2] (2 hrs Reperfusion), 363 ± 9 beats/min; in the data set on Sprague-Dawley rats [2] (Baseline) it was 370 ± 6 beats/min; with Sprague-Dawley rats [3] (setting [7]), 373 ± 10 beats/min; in the data set on Sprague-Dawley rats [3] (setting [8]) it was 360 ± 21 beats/min; in the data set with Sprague-Dawley rats [3] (setting [9]) it was 385 ± 15 beats/min. Further, the HR in the data set on Sprague-Dawley rats [3] (setting [10]) worked out at 420 ± 9 beats/min; with Sprague-Dawley rats [3] (setting [11]) it was 362 ± 6 beats/min; in the data set with Sprague-Dawley rats [3] (setting [12]), 368 ± 6 beats/min; in the data set with Sprague-Dawley rats [3] (setting [13]), 367 ± 3 beats/min; in the data set on Sprague-Dawley rats [3] (setting [14]), 370 ± 4 beats/min; in the data set on Sprague-Dawley rats [3] (Baseline, capsaicin 0.1 mg/kg) it was 377 ± 13 beats/min. Further, the HR with Sprague-Dawley rats [3] (Baseline, capsaicin 0.3 mg/kg) came out at 370 ± 11 beats/min; with Sprague-Dawley rats [3] (Baseline, capsaicin 1.0 mg/kg) it was 353 ± 11 beats/min; in the data set with Sprague-Dawley rats [3] (Baseline, capsaicin 3.0 mg/kg), 357 ± 8 beats/min. In addition, the MAP in the data set on Sprague-Dawley rats [2] (15 min Ischemia) is 118 ± 10 mmHg; in the data set with Sprague-Dawley rats [2] (2 hrs Reperfusion), 87 ± 7 mmHg; in the data set on Sprague-Dawley rats [2] (Baseline), 134 ± 3 mmHg; in the data set on Sprague-Dawley rats [3] (setting [7]) it was 110 ± 7 mmHg; in the data set with Sprague-Dawley rats [3] (setting [8]), 89 ± 14 mmHg; in the data set with Sprague-Dawley rats [3] (setting [9]), 104 ± 10 mmHg. Also, the MAP is reported as 113 ± 5 mmHg in the data set on Sprague-Dawley rats [3] (setting [10]); 86 ± 5 mmHg in the data set on Sprague-Dawley rats [3] (setting [11]); 85 ± 3 mmHg in the data set with Sprague-Dawley rats [3] (setting [12]); 79 ± 3 mmHg in the data set with Sprague-Dawley rats [3] (setting [13]); 72 ± 4 mmHg in the data set on Sprague-Dawley rats [3] (setting [14]); 128 ± 4 mmHg in the data set with Sprague-Dawley rats [3] (Baseline, capsaicin 0.1 mg/kg). Moreover, the MAP worked out at 137 ± 7 mmHg in the data set with Sprague-Dawley rats [3] (Baseline, capsaicin 0.3 mg/kg); 131 ± 6 mmHg with Sprague-Dawley rats [3] (Baseline, capsaicin 1.0 mg/kg); 127 ± 4 mmHg with Sprague-Dawley rats [3] (Baseline, capsaicin 3.0 mg/kg). The RPP in the data set on Sprague-Dawley rats [2] (15 min Ischemia) is listed as 51 ± 5 mmHg/1000; with Sprague-Dawley rats [2] (2 hrs Reperfusion), 39 ± 3 mmHg/1000; in the data set with Sprague-Dawley rats [2] (Baseline), 58 ± 2 mmHg/1000; with Sprague-Dawley rats [3] (setting [7]), 47 ± 4 mmHg/1000; in the data set with Sprague-Dawley rats [3] (setting [8]) it was 40 ± 7 mmHg/1000; in the data set with Sprague-Dawley rats [3] (setting [9]), 46 ± 5 mmHg/1000. For the same compound, the RPP in the data set on Sprague-Dawley rats [3] (setting [10]) worked out at 53 ± 3 mmHg/1000; in the data set on Sprague-Dawley rats [3] (setting [11]), 39 ± 2 mmHg/1000; in the data set with Sprague-Dawley rats [3] (setting [12]), 38 ± 2 mmHg/1000; in the data set with Sprague-Dawley rats [3] (setting [13]), 36 ± 2 mmHg/1000; in the data set with Sprague-Dawley rats [3] (setting [14]), 35 ± 2 mmHg/1000; with Sprague-Dawley rats [3] (Baseline, capsaicin 0.1 mg/kg), 60 ± 5 mmHg/1000. Further, the RPP in the data set with Sprague-Dawley rats [3] (Baseline, capsaicin 0.3 mg/kg) is listed as 60 ± 5 mmHg/1000; with Sprague-Dawley rats [3] (Baseline, capsaicin 1.0 mg/kg), 55 ± 3 mmHg/1000; in the data set with Sprague-Dawley rats [3] (Baseline, capsaicin 3.0 mg/kg) it was 53 ± 2 mmHg/1000. The myocardial infarct size is 45±1% in the data set with Sprague-Dawley rats [2] (given just prior to reperfusion, n=6/group, control 61±2%); “failed to reduce myocardial infarct size” in the data set on Sprague-Dawley rats [3] (3.0 mg/kg); “reduced myocardial infarct size” in the data set with Sprague-Dawley rats [3] (0.1-1.0 mg/kg). Moreover, the “infarct size reduction when compared to control” value in the data set on Sprague-Dawley rats [2] (single intravenous bolus 5 minutes prior to reperfusion) is given as 27%. For the same compound, the infarct size result in the data set with Sprague-Dawley rats [3] (0.1 mg/kg and 1.0 mg/kg) is listed as “partial effects”; with Sprague-Dawley rats [3] (0.3 mg/kg) it was “maximally decreased infarct size”. In addition, the “heart rate after intravenous administration” value in the data set with Sprague-Dawley rats [3] (0.1-3.0 mg/kg intravenously) is on record as “dose-dependently increased heart rate”.

Consider `Oc1cc2c(cc1O)CN(C(=S)NCCc1ccc(Cl)cc1)CCC2` [capsazepine], for which the “changes in mitochondrial membrane potential induced by capsaicin” value in data set [1] (treated 10 minutes prior to capsaicin) was “blocked”. For the same compound, in the data set with Sprague-Dawley rats [4] (3 mg/kg, internal jugular vein, 10 minutes before the incision), the “effect on incision-induced infarct size reduction” value is “blocked”. Also, in the data set with Sprague-Dawley rats [4] (15 min Ischemia), the “HR (heart rate)” value is listed as 396 ± 10 beats/min, the “MAP (mean arterial pressure)” value is 115 ± 9 mmHg and the “RPP (rate pressure product)” value was determined as 52 ± 5 mmHg/1000. Further, in the data set with Sprague-Dawley rats [4] (2 hrs Reperfusion), the “HR (heart rate)” value was found to be 374 ± 5 beats/min, the “MAP (mean arterial pressure)” value worked out at 82 ± 3 mmHg and the “RPP (rate pressure product)” value came out at 39 ± 1 mmHg/1000. Moreover, in the data set with Sprague-Dawley rats [4] (Baseline), the “HR (heart rate)” value amounted to 384 ± 5 beats/min, the “MAP (mean arterial pressure)” value came to 121 ± 4 mmHg and the “RPP (rate pressure product)” value came out at 55 ± 2 mmHg/1000. Moreover, the “infarct size, agent alone, compared to control” value in the data set on Sprague-Dawley rats [4] (capsazepine alone) is reported as “no differences were noted for infarct size compared to the control group”. In addition, the “infarct size sparing effect of capsaicin” value with Sprague-Dawley rats [3] (CPZ 3 mg/kg, CsA 2.5 mg/kg, 40 minutes prior to ischemia) is “blocked the infarct size sparing effect of capsaicin”. Further, in the data set with Sprague-Dawley rats [3] (capsaicin 0.3 mg/kg, CPZ 3 mg/kg, CsA 2.5 mg/kg), the “change in heart rate afforded by capsaicin” value is “reduced the change in heart rate”.

For YGRKKRRQRRRGGAIIITILDTEIS [A5-cal], the “heart rate when infused” value in the data set on isolated rat hearts is recorded as “neither peptide had any effects on heart rate”.

Consider YGRKKRRQRRRGGRAITILDTEKS [V1-cal], for which the HR came to 446 ± 13 beats/min in data set [5] (15 min Ischemia); 439 ± 12 beats/min in data set [5] (Baseline); 432 ± 10 beats/min with Sprague-Dawley rats [2] (15 min Ischemia); 389 ± 15 beats/min in the data set with Sprague-Dawley rats [2] (2 hrs Reperfusion); 428 ± 6 beats/min in the data set on Sprague-Dawley rats [2] (Baseline). The MAP in data set [5] (15 min Ischemia) was determined as 114 ± 7 mmHg; in data set [5] (2 hrs Reperfusion), 84 ± 8 mmHg; in data set [5] (Baseline), 123 ± 6 mmHg; in the data set on Sprague-Dawley rats [2] (15 min Ischemia), 110 ± 5 mmHg; in the data set with Sprague-Dawley rats [2] (2 hrs Reperfusion), 68 ± 5 mmHg; with Sprague-Dawley rats [2] (Baseline), 115 ± 5 mmHg. The RPP is given as 56 ± 4 mmHg/1000 in data set [5] (15 min Ischemia); 40 ± 4 mmHg/1000 in data set [5] (2 hrs Reperfusion); 61 ± 4 mmHg/1000 in data set [5] (Baseline); 47 ± 3 mmHg/1000 in the data set with Sprague-Dawley rats [2] (15 min Ischemia); 26 ± 3 mmHg/1000 in the data set on Sprague-Dawley rats [2] (2 hrs Reperfusion); 49 ± 3 mmHg/1000 in the data set with Sprague-Dawley rats [2] (Baseline). The results for the TIME in data set [5] (15 min Ischemia), in data set [5] (2 hrs Reperfusion) and in data set [5] (Baseline) were 37.1 ± 0.1, 37 ± 0.1 and 36.9 ± 0.2, respectively. Besides, the metabolised at 20 min in data set [6] turned out to be 100%. Also, the “heart rate when infused” value with isolated rat hearts is reported as “neither peptide had any effects on heart rate”.
